In PubChem BioAssay AID1259407 (Chemical Carcinogenesis Research Information System (CCRIS), 2018):
Active and inactive are the calls of the source. How the calls were made is not given here.

Tested on: CCRIS mutagenicity, Ames/micronucleus/aberration tests
Experiment: CCRIS mutagenicity studies
[1] = Test System: AMES SALMONELLA TYPHIMURIUM, Strain/Indicator: TA98, Metabolic Activation: NONE, Method: PREINCUBATION
[2] = Test System: AMES SALMONELLA TYPHIMURIUM, Strain/Indicator: TA100, Metabolic Activation: NONE, Method: PREINCUBATION
[3] = Test System: AMES SALMONELLA TYPHIMURIUM, Strain/Indicator: TA1535, Metabolic Activation: NONE, Method: PREINCUBATION
[4] = Test System: AMES SALMONELLA TYPHIMURIUM, Strain/Indicator: TA1537, Metabolic Activation: NONE, Method: PREINCUBATION
[5] = Test System: AMES SALMONELLA TYPHIMURIUM, Strain/Indicator: TA98, Metabolic Activation: NONE, Method: STANDARD PLATE
[6] = Test System: AMES SALMONELLA TYPHIMURIUM, Strain/Indicator: TA100, Metabolic Activation: NONE, Method: STANDARD PLATE
[7] = Test System: AMES SALMONELLA TYPHIMURIUM, Strain/Indicator: TA97, Metabolic Activation: NONE, Method: STANDARD PLATE
[8] = Test System: AMES SALMONELLA TYPHIMURIUM, Strain/Indicator: TA97, Metabolic Activation: RAT, LIVER, S-9, AROCLOR 1254, Method: STANDARD PLATE
[9] = Test System: AMES SALMONELLA TYPHIMURIUM, Strain/Indicator: TA98, Metabolic Activation: RAT, LIVER, S-9, AROCLOR 1254, Method: STANDARD PLATE
[10] = Test System: AMES SALMONELLA TYPHIMURIUM, Strain/Indicator: TA100, Metabolic Activation: RAT, LIVER, S-9, AROCLOR 1254, Method: STANDARD PLATE
[11] = Test System: AMES SALMONELLA TYPHIMURIUM, Strain/Indicator: TA102, Metabolic Activation: NONE, Method: STANDARD PLATE
[12] = Test System: AMES SALMONELLA TYPHIMURIUM, Strain/Indicator: TA102, Metabolic Activation: RAT, LIVER, S-9, AROCLOR 1254, Method: STANDARD PLATE
[13] = Test System: AMES SALMONELLA TYPHIMURIUM, Strain/Indicator: TA1535, Metabolic Activation: NONE, Method: STANDARD PLATE
[14] = Test System: AMES SALMONELLA TYPHIMURIUM, Strain/Indicator: TA1535, Metabolic Activation: RAT, LIVER, S-9, AROCLOR 1254, Method: STANDARD PLATE
[15] = Test System: AMES SALMONELLA TYPHIMURIUM, Strain/Indicator: TA1537, Metabolic Activation: NONE, Method: STANDARD PLATE
[16] = Test System: AMES SALMONELLA TYPHIMURIUM, Strain/Indicator: TA1537, Metabolic Activation: RAT, LIVER, S-9, AROCLOR 1254, Method: STANDARD PLATE

**Q.** How did the mutagenic call (End Point: In vitro chromosomal aberrations, Test System: Human lymphocytes, Metabolic Activation: None) turn out when `[Ru]` was run?
**A.** Its mutagenic call is “inactive; negative. actual compound tested was cis(dichloro)tetraammonium ruthenium(iii)ch”.

**Q.** Which results are given for `CC(C)CN(CC(C)C)CC(C)C`?
**A.** mutagenic call (Test System: AMES SALMONELLA TYPHIMURIUM, Strain/Indicator: TA98, Metabolic Activation: HAMSTER, LIVER, S-9, AROCLOR 1254 (10%), Method: PREINCUBATION): inactive; negative; mutagenic call [1]: inactive; negative; mutagenic call (Test System: AMES SALMONELLA TYPHIMURIUM, Strain/Indicator: TA98, Metabolic Activation: RAT, LIVER, S-9, AROCLOR 1254 (10%), Method: PREINCUBATION): inactive; negative; mutagenic call (Test System: AMES SALMONELLA TYPHIMURIUM, Strain/Indicator: TA100, Metabolic Activation: HAMSTER, LIVER, S-9, AROCLOR 1254 (10%), Method: PREINCUBATION): inactive; negative; mutagenic call [2]: inactive; negative; mutagenic call (Test System: AMES SALMONELLA TYPHIMURIUM, Strain/Indicator: TA100, Metabolic Activation: RAT, LIVER, S-9, AROCLOR 1254 (10%), Method: PREINCUBATION): inactive; negative; mutagenic call (Test System: AMES SALMONELLA TYPHIMURIUM, Strain/Indicator: TA1535, Metabolic Activation: HAMSTER, LIVER, S-9, AROCLOR 1254 (10%), Method: PREINCUBATION): inactive; negative; mutagenic call [3]: inactive; negative; mutagenic call (Test System: AMES SALMONELLA TYPHIMURIUM, Strain/Indicator: TA1535, Metabolic Activation: RAT, LIVER, S-9, AROCLOR 1254 (10%), Method: PREINCUBATION): inactive; negative; mutagenic call (Test System: AMES SALMONELLA TYPHIMURIUM, Strain/Indicator: TA1537, Metabolic Activation: HAMSTER, LIVER, S-9, AROCLOR 1254 (10%), Method: PREINCUBATION): inactive; negative; mutagenic call [4]: inactive; negative; mutagenic call (Test System: AMES SALMONELLA TYPHIMURIUM, Strain/Indicator: TA1537, Metabolic Activation: RAT, LIVER, S-9, AROCLOR 1254 (10%), Method: PREINCUBATION): inactive; negative

**Q.** Which results are given for `Cc1ccc(N)cc1N=[N+]([O-])c1cc(N)ccc1C`?
**A.** mutagenic call (Test System: AMES SALMONELLA TYPHIMURIUM, Strain/Indicator: TA98, Metabolic Activation: NONE, Method: SUSPENSION/PLATE): inactive; negative; mutagenic call (Test System: AMES SALMONELLA TYPHIMURIUM, Strain/Indicator: TA98, Metabolic Activation: RAT, LIVER, S-9, PHENOBARBITAL AND 5,6-BENZOFLAVONE, Method: SUSPENSION/PLATE): inactive; negative; mutagenic call (Test System: AMES SALMONELLA TYPHIMURIUM, Strain/Indicator: TA100, Metabolic Activation: NONE, Method: SUSPENSION/PLATE): inactive; negative; mutagenic call (Test System: AMES SALMONELLA TYPHIMURIUM, Strain/Indicator: TA100, Metabolic Activation: RAT, LIVER, S-9, PHENOBARBITAL AND 5,6-BENZOFLAVONE, Method: SUSPENSION/PLATE): active; positive

**Q.** Which mutagenic call [5] does the source give for `Cc1cc2c(C(C)C)c(O)c(O)c(C=O)c2c(O)c1-c1c(C)cc2c(C(C)C)c(O)c(O)c(C=O)c2c1O` here?
**A.** The mutagenic call was “inactive; negative”.

**Q.** And the mutagenic call (Test System: AMES SALMONELLA TYPHIMURIUM, Strain/Indicator: TA98, Metabolic Activation: RAT, LIVER, S-9, AROCLOR 1254 OR PHENOBARBITAL, Method: STANDARD PLATE)?
**A.** Its mutagenic call is “inactive; negative”.

**Q.** What about the mutagenic call [6] of the same compound?
**A.** Its mutagenic call is “inactive; negative”.

**Q.** And the mutagenic call (Test System: AMES SALMONELLA TYPHIMURIUM, Strain/Indicator: TA100, Metabolic Activation: RAT, LIVER, S-9, AROCLOR 1254 OR PHENOBARBITAL, Method: STANDARD PLATE)?
**A.** The mutagenic call was “inactive; negative”.

**Q.** What does the source list for `COC1=CC(=O)c2nc(C)c3c([nH]c4ccccc43)c2C1=O`?
**A.** mutagenic call [7]: active; positive; mutagenic call [8]: active; positive; mutagenic call [5]: inactive; negative; mutagenic call [9]: active; positive; mutagenic call [6]: active; positive; mutagenic call [10]: inactive; negative; mutagenic call [11]: inactive; negative; mutagenic call [12]: inactive; negative

**Q.** `CCOc1ccccc1[N+](=O)[O-]` was tested. Which mutagenic call [1] did it give?
**A.** Its mutagenic call is “inactive; negative”.

**Q.** And the mutagenic call [2]?
**A.** The mutagenic call was “active; positive”.

**Q.** What about the mutagenic call [3] of the same compound?
**A.** The mutagenic call was “active; positive”.

**Q.** And the mutagenic call [4]?
**A.** Its mutagenic call is “inactive; negative”.

**Q.** And the mutagenic call (Test System: AMES SALMONELLA TYPHIMURIUM, Strain/Indicator: TA1538, Metabolic Activation: NONE, Method: PREINCUBATION)?
**A.** Its mutagenic call is “inactive; negative”.

**Q.** Which mutagenic call [7] does the source give for `CC(O)CN(C)c1ccc(NN)nn1` (stereo not drawn) here?
**A.** Its mutagenic call is “active; positive”.

**Q.** What about the mutagenic call [8] of the same compound?
**A.** The mutagenic call was “active; positive”.

**Q.** And the mutagenic call [5]?
**A.** Its mutagenic call is “active; positive”.

**Q.** What about the mutagenic call [9] of the same compound?
**A.** The mutagenic call was “active; positive”.

**Q.** And the mutagenic call [6]?
**A.** The mutagenic call was “inactive; negative”.

**Q.** What about the mutagenic call [10] of the same compound?
**A.** Its mutagenic call is “inactive; negative”.

**Q.** What about the mutagenic call [11] of the same compound?
**A.** Its mutagenic call is “active; positive”.

**Q.** What about the mutagenic call [12] of the same compound?
**A.** Its mutagenic call is “inactive; negative”.

**Q.** What about the mutagenic call [13] of the same compound?
**A.** The mutagenic call was “inactive; negative”.

**Q.** What about the mutagenic call [14] of the same compound?
**A.** Its mutagenic call is “inactive; negative”.

**Q.** And the mutagenic call [15]?
**A.** The mutagenic call was “active; positive”.

**Q.** And the mutagenic call [16]?
**A.** Its mutagenic call is “active; positive”.

**Q.** What about the mutagenic call (Test System: AMES SALMONELLA TYPHIMURIUM, Strain/Indicator: TA1538, Metabolic Activation: NONE, Method: STANDARD PLATE) of the same compound?
**A.** The mutagenic call was “active; positive”.

**Q.** And the mutagenic call (Test System: AMES SALMONELLA TYPHIMURIUM, Strain/Indicator: TA1538, Metabolic Activation: RAT, LIVER, S-9, AROCLOR 1254, Method: STANDARD PLATE)?
**A.** The mutagenic call was “active; positive”.

**Q.** And the mutagenic call (Test System: E. COLI, Strain/Indicator: WP2, Metabolic Activation: RAT, LIVER, S-9, AROCLOR 1254, Method: STANDARD PLATE)?
**A.** The mutagenic call was “inactive; negative”.

**Q.** And the mutagenic call (Test System: E. COLI, Strain/Indicator: WP2 UVRA, Metabolic Activation: RAT, LIVER, S-9, AROCLOR 1254, Method: STANDARD PLATE)?
**A.** The mutagenic call was “active; positive”.

**Q.** For `O=C(O)c1cc(Br)cc2cccnc12`, which mutagenic call [5] is on record?
**A.** Its mutagenic call is “inactive; negative”.

**Q.** What about the mutagenic call [9] of the same compound?
**A.** Its mutagenic call is “inactive; negative”.

**Q.** And the mutagenic call [6]?
**A.** The mutagenic call was “inactive; negative”.

**Q.** And the mutagenic call [10]?
**A.** The mutagenic call was “inactive; negative”.

**Q.** What about the mutagenic call [13] of the same compound?
**A.** Its mutagenic call is “inactive; negative”.

**Q.** What about the mutagenic call [14] of the same compound?
**A.** The mutagenic call was “inactive; negative”.

**Q.** What about the mutagenic call [15] of the same compound?
**A.** The mutagenic call was “inactive; negative”.

**Q.** And the mutagenic call [16]?
**A.** The mutagenic call was “inactive; negative”.

**Q.** With `Cc1cccc(N=Nc2c(O)ccc3ccccc23)c1C` as the compound, how does the mutagenic call [5] read?
**A.** The mutagenic call was “inactive; negative”.

**Q.** And the mutagenic call (Test System: AMES SALMONELLA TYPHIMURIUM, Strain/Indicator: TA98, Metabolic Activation: RAT, LIVER, S-9, Method: STANDARD PLATE)?
**A.** The mutagenic call was “inactive; negative”.

**Q.** What about the mutagenic call [6] of the same compound?
**A.** The mutagenic call was “inactive; negative”.

**Q.** What about the mutagenic call (Test System: AMES SALMONELLA TYPHIMURIUM, Strain/Indicator: TA100, Metabolic Activation: RAT, LIVER, S-9, Method: STANDARD PLATE) of the same compound?
**A.** Its mutagenic call is “inactive; negative”.

**Q.** `COc1ccc2c(c1)-c1c(OC)c(OC)cc3c1C(C2=O)N(C)CC3` (stereo not drawn) was tested. Which mutagenic call (Test System: AMES SALMONELLA TYPHIMURIUM, Strain/Indicator: TA100, Metabolic Activation: RAT, LIVER, S-9, PHENOBARBITAL AND BETA-NAPHTHOFLAVONE, Method: PREINCUBATION) did it give?
**A.** The mutagenic call was “inactive; negative”.
